Test results from US20180045675A1, “SINGLE-CELL INTRACELLULAR NANO-PH PROBES” (The Regents of the University of California, priority 2015, published 2018).

Test system: MDA-MB-231 cells
Experiment: real-time intracellular pH measurement with nano-pH probe during chloride channel blocker exposure
Assay type: cell-based, human
Settings: single MDA-MB-231 cells
Excerpt: Sensing setup. To carry out analytical characterization experiments of chitosan-modified nanopipette sensors, a two-electrode setup connected to a potentiostat (1030C, CH Instruments Inc.) was used for sensing. A 125 μm platinum wire (Goodfellow Corporation) placed into nanopipettes filled with electrolyte served as the working electrode while a pseudo Ag/AgCl electrode placed in bulk solution (PBS or cell media) served as the reference electrode. Linear sweep voltammetry was utilized for all in vitro measurements with a scan rate of 0.1 V/sec.
Intracellular measurements were performed by combining the potentiostat and scanning ion conductance microscope (SICM) with a low-noise mechanical switch. The SICM setup consisted of an Axopatch 200B amplifier (Molecular Devices) for current feedback measurements, a MP-285 motorized micromanipulator (Sutter Instrument) for coarse positioning of the nano-pH probe, a piezo stage (NanoCube, Physik Instrumente) for fine positioning and insertion of the nano-pH probe sensors, and a programmable interface for hardware control of the setup. This system is run by custom software written in LabVIEW (National Instruments). All experiments with cells were conducted on an inverted fluorescence microscope (Olympus IX 70) equipped with an eyepiece camera (Dino-Eye, Big C).
Cell culture. […]
Chitosan-modified nanopipettes were inserted to individual cells using a customized scanning ion conductance microscope which detects current feedback for positioning the nanopipettes. […] After the insertion of the nano-pH probe into a cell, linear sweep voltammograms were recorded and the current-responses at a bias potential of 0.6 V were used to calculate the intracellular pH levels of single cells.
The present nano-pH probe can be used to monitor intracellular pH changes during drug therapy. […] Conventionally, the change in pH has been measured indirectly by introduction of fluorescent dye (BCECF-AM)^47,48. […] The measured pH levels stabilized by 4 min post NPPB introduction. […]

## O=C(O)c1cc([N+](=O)[O-])ccc1NCCCc1ccccc1 [NPPB, 5-nitro-2-(3-phenylpropylamino)-benzoate]
100 μM NPPB
  time by which measured pH levels stabilized post NPPB introduction: ≤ 4 min
  time within which intracellular pH level dropped significantly after introduction of NPPB: ≤ 2 min
100 μM NPPB in cell media, readings every 21 sec for 7 min, baseline around 7
  lowest intracellular pH level after introduction of NPPB: 2.5
